# PubChem BioAssay (NCI)
#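 GI50 = concentration required for 50% inhibition of growth. Definition used: TGI = concentration required for complete inhibition of growth.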
# Tests used:
# Test in all cases: inhibition of tumour cell growth, NCI panel, 384-well format
# CAKI-1 renal = system: CAKI-1 renal
# HT29 colon = system: HT29 colon
# OVCAR-4 ovarian = system: OVCAR-4 ovarian
# SK-MEL-28 melanoma = system: SK-MEL-28 melanoma
# DU-145 prostate = system: DU-145 prostate
# A549 NSCLC = system: A549 NSCLC
# MCF7 breast = system: MCF7 breast
# UACC-62 melanoma = system: UACC-62 melanoma
# SR leukemia = system: SR leukemia
# MDA-MB-435 melanoma = system: MDA-MB-435 melanoma
# LOX IMVI melanoma = system: LOX IMVI melanoma
# SF-268 CNS = system: SF-268 CNS
# SK-MEL-2 melanoma = system: SK-MEL-2 melanoma
# COLO 205 colon = system: COLO 205 colon
# SK-OV-3 ovarian = system: SK-OV-3 ovarian
# RXF 393 renal = system: RXF 393 renal
# CCRF-CEM leukemia = system: CCRF-CEM leukemia
# K-562 leukemia = system: K-562 leukemia
# HCT-15 colon = system: HCT-15 colon
# HCT-116 colon = system: HCT-116 colon
# EKVX NSCLC = system: EKVX NSCLC
# MDA-MB-231 breast = system: MDA-MB-231 breast
# OVCAR-5 ovarian = system: OVCAR-5 ovarian
# U251 glioblastoma = system: U251 glioblastoma
# NCI-H460 NSCLC = system: NCI-H460 NSCLC
# SNB-19 CNS = system: SNB-19 CNS
# NCI/ADR-RES ovarian = system: NCI/ADR-RES ovarian
# 786-0 renal = system: 786-0 renal
# ACHN renal = system: ACHN renal
# M14 melanoma = system: M14 melanoma
# UACC-257 melanoma = system: UACC-257 melanoma
# OVCAR-8 ovarian = system: OVCAR-8 ovarian
# MALME-3M melanoma = system: MALME-3M melanoma
# NCI-H522 lung = system: NCI-H522 lung
# TK-10 renal = system: TK-10 renal
# BT-549 breast = system: BT-549 breast
# SW-620 colon = system: SW-620 colon
# NCI-H23 lung = system: NCI-H23 lung
# NCI-H322M lung = system: NCI-H322M lung
# HCC-2998 colon = system: HCC-2998 colon
# IGROV1 ovarian = system: IGROV1 ovarian
# HOP-92 NSCLC = system: HOP-92 NSCLC
# SN12C renal = system: SN12C renal
# RPMI-8226 leukemia = system: RPMI-8226 leukemia
# SK-MEL-5 melanoma = system: SK-MEL-5 melanoma
# HS 578T breast = system: HS 578T breast
# HL-60(TB) leukemia = system: HL-60(TB) leukemia
compound,measurement,setting,value
CS(=O)(=O)CCNCc1ccc(-c2ccc3ncnc(Nc4ccc(OCc5cccc(F)c5)c(Cl)c4)c3c2)o1,GI50,CAKI-1 renal,1.46 µM
same,TGI,CAKI-1 renal,2.97 µM
same,GI50,HT29 colon,1.85 µM
same,TGI,HT29 colon,3.27 µM
same,GI50,OVCAR-4 ovarian,1.72 µM
same,TGI,OVCAR-4 ovarian,3.19 µM
same,GI50,SK-MEL-28 melanoma,1.8 µM
same,TGI,SK-MEL-28 melanoma,3.21 µM
same,GI50,DU-145 prostate,1.39 µM
same,TGI,DU-145 prostate,3.38 µM
same,GI50,A549 NSCLC,1.36 µM
same,TGI,A549 NSCLC,2.69 µM
same,GI50,MCF7 breast,1.67 µM
same,TGI,MCF7 breast,3.06 µM
same,GI50,UACC-62 melanoma,1.95 µM
same,TGI,UACC-62 melanoma,3.43 µM
same,GI50,SR leukemia,2.09 µM
same,TGI,SR leukemia,3.53 µM
same,GI50,MDA-MB-435 melanoma,4.97 µM
same,TGI,MDA-MB-435 melanoma,9.25 µM
same,GI50,LOX IMVI melanoma,1.8 µM
same,TGI,LOX IMVI melanoma,3.21 µM
same,GI50,SF-268 CNS,2.63 µM
same,TGI,SF-268 CNS,6.97 µM
same,GI50,SK-MEL-2 melanoma,1.6 µM
same,TGI,SK-MEL-2 melanoma,2.96 µM
same,GI50,COLO 205 colon,3.78 µM
same,TGI,COLO 205 colon,9.05 µM
same,GI50,SK-OV-3 ovarian,0.785 µM
same,TGI,SK-OV-3 ovarian,5.17 µM
same,GI50,RXF 393 renal,1.46 µM
same,TGI,RXF 393 renal,2.79 µM
same,GI50,CCRF-CEM leukemia,1.68 µM
same,TGI,CCRF-CEM leukemia,3.05 µM
same,GI50,K-562 leukemia,1.69 µM
same,TGI,K-562 leukemia,3.07 µM
same,GI50,HCT-15 colon,1.45 µM
same,TGI,HCT-15 colon,2.79 µM
same,GI50,HCT-116 colon,1.85 µM
same,TGI,HCT-116 colon,3.45 µM
same,GI50,EKVX NSCLC,0.777 µM
same,TGI,EKVX NSCLC,3.13 µM
same,GI50,MDA-MB-231 breast,1.93 µM
same,TGI,MDA-MB-231 breast,3.4 µM
same,GI50,OVCAR-5 ovarian,2.74 µM
same,TGI,OVCAR-5 ovarian,7.5 µM
same,GI50,U251 glioblastoma,1.84 µM
same,TGI,U251 glioblastoma,3.35 µM
same,GI50,NCI-H460 NSCLC,1.86 µM
same,TGI,NCI-H460 NSCLC,3.29 µM
same,GI50,SNB-19 CNS,4.43 µM
same,TGI,SNB-19 CNS,9.08 µM
same,GI50,NCI/ADR-RES ovarian,1.56 µM
same,TGI,NCI/ADR-RES ovarian,3.47 µM
same,GI50,786-0 renal,1.34 µM
same,TGI,786-0 renal,2.62 µM
same,GI50,ACHN renal,0.398 µM
same,TGI,ACHN renal,8.09 µM
same,GI50,M14 melanoma,1.93 µM
same,TGI,M14 melanoma,3.35 µM
same,GI50,UACC-257 melanoma,1.99 µM
same,TGI,UACC-257 melanoma,3.42 µM
same,GI50,OVCAR-8 ovarian,1.72 µM
same,TGI,OVCAR-8 ovarian,3.73 µM
same,GI50,MALME-3M melanoma,1.83 µM
same,TGI,MALME-3M melanoma,3.23 µM
same,GI50,NCI-H522 lung,0.102 µM
same,TGI,NCI-H522 lung,1.48 µM
same,GI50,TK-10 renal,0.644 µM
same,TGI,TK-10 renal,4.5 µM
same,GI50,BT-549 breast,1.65 µM
same,TGI,BT-549 breast,3.01 µM
same,GI50,SW-620 colon,1.99 µM
same,TGI,SW-620 colon,3.5 µM
same,GI50,NCI-H23 lung,2.07 µM
same,TGI,NCI-H23 lung,4.07 µM
same,GI50,NCI-H322M lung,0.179 µM
same,TGI,NCI-H322M lung,1.14 µM
same,GI50,HCC-2998 colon,1.81 µM
same,TGI,HCC-2998 colon,3.22 µM
same,GI50,IGROV1 ovarian,0.751 µM
same,TGI,IGROV1 ovarian,2.87 µM
same,GI50,HOP-92 NSCLC,1.37 µM
same,TGI,HOP-92 NSCLC,2.68 µM
same,GI50,SN12C renal,2.16 µM
same,TGI,SN12C renal,7.1 µM
same,GI50,RPMI-8226 leukemia,1.85 µM
same,TGI,RPMI-8226 leukemia,3.25 µM
same,GI50,SK-MEL-5 melanoma,1.77 µM
same,TGI,SK-MEL-5 melanoma,3.16 µM
same,GI50,HS 578T breast,1.97 µM
same,TGI,HS 578T breast,3.48 µM
same,GI50,HL-60(TB) leukemia,2.26 µM
same,TGI,HL-60(TB) leukemia,3.73 µM
